Experimental data: patent publication EP2924040A1, “2-Amino-1-(o-tolyl)pyrrolo[3,2-b]quinoxaline-3-carboxamide derivates” (Universität Zürich, priority 2014, dated 2015)

Tests used:
Type in all cases: cell-based
[1] = system: NCI-60 panel of cancer cell-lines; assay: NCI-60 DTP Human Tumor Cell Line Screen at 5 doses (whole panel); conditions: SNB-75, K562, A498, LOX IMV1, HS 578T and MDA-MB-231 among others (Fig. 5)
Procedure: Compound 2 was screened by the National Cancer Institute (NCI) at 5 doses on the NCI-60 DTP Human Tumor Cell Line Screen.
Compound 2 was further screened against cancer cell lines by the National Cancer Institute (NCI). This screen was performed as per the description provided at http://dtp.nci.nih.gov/branches/btb/ivclsp.html. "The NCI 60 panel cell lines were grown in RPMI 1640 medium supplemented with 5% (v/v) fetal bovine serum and 2 mM L-glutamine at 37° C, 5 % CO2, 95 % air and 100 % relative humidity. Cells were seeded at 5,000 - 40,000 cells/well depending on their doubling time. After 24 hours of incubation, DMSO stock solutions of the compounds (400X) were added at 5 different concentrations (in […] serial dilutions). After 48 h cells were fixed with trichloroacetic acid (10% or 16% final concentration for adherent cells and suspension cells respectively) and incubated for 60 minutes at 4°C. […] The bound stain was solubilized with 10mM trizma base and determined by absorbance measurement on an automated plate reader at a wavelength of 515 nm. The percentage growth inhibition was calculated as followed, being Tz time zero measurements, C control growth measurements and Ti test growth experiments in the present of the drug. […]
Three dose response parameters were calculated for each cell line. […] Total growth inhibition (TGI) is calculated from Ti = Tz. […]

HOP-92 = assay: Cell culture and GI50 determination (resazurin); conditions: Homo sapiens; HOP-92, resazurin
Procedure: (§1) MDA-MB-231 (breast cancer) and KM12 (colon cancer) cells obtained from the UZH Cancer Institute, HOP-92 (lung cancer) cells purchased from the National Cancer Institute (NCl) and A498 (kidney cancer) cells obtained from Prof. Krek (Institute of Cell Biology, ETH Zurich) were cultured in Dulbecco's modified Eagle's medium (DMEM) supplemented with 10% (v/v) fetal bovine serum. K562 leukemia cells obtained from Dr. Silvio Hemmi (Institute of Molecular Life Sciences, UZH) were cultured using RPMI medium supplemented with 5% (v/v) fetal bovine serum. All the media was additionally supplemented with 100 units/mL of penicillin, 100µg/mL of streptomycin, 4.5 g/L glucose, 0.11g/L sodium pyrubate and 2mM glutamine and the cells were grown at 37 °C in 5% CO2 atmosphere with 80% relative humidity.
(§2) MDA-MB-231, HT-29, KM12, HOP-92 and A498 cells were plated at 10,000 cells per well (100 µL per well) in 96-well culture dishes and allowed to incubate for 24 h. The old media was removed, the cells were washed with PBS (phosphate-buffered saline) and fresh media was added. A 5 mmol/L solution of inhibitor (in 100% DMSO) was serially diluted in the culture media (12 different concentrations were used) and allowed to incubate for 72 h (MDA-MB-231) or 48h (A498). Control cells were treated with the same DMSO concentrations. After the incubation period the media was once more removed and the cells were washed with PBS to then be incubated with fresh media containing 86 nmol/L resazurin. After 3 hours, the fluorescence was quantified using a fluorescence microplate reader (Biotek, FLx800™) at the respective excitation and emission wavelength of 560 and 590 nm. Resazurin becomes fluorescent under mitochondrial reduction and its emission directly correlates with the metabolic stability of the cells. The measured fluorescence values were corrected from the control samples containing DMSO and GI50 values were determined by plotting the fraction of metabolically active cells against the log of the drug concentration. All measurements were performed at least in triplicate.

KM12 = assay: Cell culture and GI50 determination (resazurin); conditions: Homo sapiens
Procedure: as §1, §2

A498 = assay: Cell culture and GI50 determination (resazurin); conditions: Homo sapiens, A498, 48h incubation
Procedure: as §1, §2

MDA-MB-231 = assay: Cell culture and GI50 determination (resazurin); conditions: Homo sapiens, MDA-MB-231, 72 h incubation
Procedure: as §1, §2

For `Cc1ccc(O)cc1-n1c(N)c(C(N)=O)c2nc3ccccc3nc21` [Compound 2, 2-Amino-1-(5-hydroxy-2-methylphenyl)-1H-pyrrolo[2,3-b]quinoxaline-3-carboxamide], the “potency (GI50 and/or TGI and/or LC50) relative to select cell-lines” value [1] was “high potency”, the GI50 (HOP-92) was 490 nM and the GI50 (KM12) was 1550 nM. It also gave a GI50 (A498) of 5880 nM and a GI50 (MDA-MB-231) of 2640 nM.
